What was measured:
PTPN2 enzyme = molecular target: T1, PTPN2 enzyme (Homo sapiens, UniProt P17706); test: PhosphoSens PTPN2 biochemical assay; details: substrate AQT0264 20 μM, room temperature; read-out: PTPN2 BCHEM IC50
T1 sequence (P17706 1-415): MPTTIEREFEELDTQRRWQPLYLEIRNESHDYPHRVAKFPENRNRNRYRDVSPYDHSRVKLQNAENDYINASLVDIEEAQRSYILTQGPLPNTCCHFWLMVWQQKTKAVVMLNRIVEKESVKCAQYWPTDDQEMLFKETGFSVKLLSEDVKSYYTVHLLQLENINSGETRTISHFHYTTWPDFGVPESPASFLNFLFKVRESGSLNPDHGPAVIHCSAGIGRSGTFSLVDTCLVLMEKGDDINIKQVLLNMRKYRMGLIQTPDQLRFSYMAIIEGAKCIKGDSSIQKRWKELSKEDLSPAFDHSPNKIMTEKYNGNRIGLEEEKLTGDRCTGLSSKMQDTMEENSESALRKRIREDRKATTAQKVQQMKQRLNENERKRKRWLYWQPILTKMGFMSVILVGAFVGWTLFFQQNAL
Procedure: A PhosphoSens® kinase assay was performed as described by the vendor (AssayQuant Technologies, Marlborough, MA). Briefly, 1000×solutions of compounds were prepared in DMSO via serial dilution of the 10 mM DMSO stocks using 3-fold intervals in a 384-well reagent plate. 50 nL of the compound dilution series was then added to the corresponding wells of a 384-well assay plate. […] of 1.25×substrate (AQT0264) in 1× assay buffer (50 mM HEPES pH 7.5, 500 μM EGTA, […] MgCl2, 0.01% Brij-35, 1% Glycerol, 1 mM DTT, and 0.2 mg/mL BSA) was transferred to each well of the assay plate to achieve a final substrate concentration of 20 μM. Finally, […] of 5×PTPN2 enzyme stock was added to each well of the assay plate for a final enzyme concentration of […]. Reaction progress curves were collected by sampling fluorescence intensity at the excitation wavelength 360 nm (λex360) and emission wavelength 480 nm (λem480) every 71 seconds for one hour using a Synergy H4 plate reader (BioTek Instruments/Agilent Technologies, Winooski, VT) at room temperature.

[1] = tested on: phosphorylated STAT1 protein levels in B16-F10 cells; test: Phospho-STAT1 (Tyr701) HTRF assay in IFN-gamma treated B16-F10 cells; format: cell-based; details: mouse IFN-gamma 100 ng/mL, 1 hour, read-out: pSTAT1 HTRF B16 EC50
Procedure: B16-F10 cells (ATCC, Manassas, VA, #CRL-6475) were cultured in DMEM growth medium (ThermoFisher Scientific, Waltham, MA, #11995-040) supplemented with 10% heat inactivated FBS (ThermoFisher Scientific, #16140-071) and 1% pen/strep (ThermoFisher Scientific, #15140-122). The cells were seeded into a white opaque 384-well tissue culture treated microplate (PerkinElmer, Waltham, MA, #6007688) at a density of 10,000 cells/well in 20 uL total volume and incubated overnight at 37 C and 5% CO2. 30 nL of compounds dissolved in DMSO were then transferred from a source plate into target wells with the Echo650 acoustic liquid handler (Beckman Coulter, Indianapolis, IN). Negative control wells received 30 nL of DMSO only (0.15% final concentration). Plates were returned to the incubator for 1 hour and then cells treated with either 5 uL of growth medium or 5 uL of growth medium containing 500 ng/mL of recombinant mouse IFN-gamma protein (R&D Systems, Minneapolis, MN, #485-MI/CF, 100 ng/mL final concentration) using the Assist automated pipetting platform (INTEGRA Biosciences, Hudson, NH). Plates were incubated at 37 C for 1 hour and assayed for phosphorylated STAT1 protein levels with the phospho-STAT1 (Tyr701) HTRF kit (Cisbio, Bedford, MA, #63ADK026PEH) according to manufacturer's instructions.

B16-F10 cells = test: Cell proliferation assay (CellTiter-Glo) in IFN-gamma treated B16-F10 cells; format: cell-based; details: 120 h, mouse IFN-gamma 10 ng/mL, read-out: PTPN2 Prolif 5d B16F10 EC50
Procedure: B16-F10 cells (ATCC, Manassas, VA, #CRL-6475) were cultured in DMEM growth medium (ThermoFisher Scientific, Waltham, MA, #11995-040) supplemented with 10% heat inactivated FBS (ThermoFisher Scientific, #16140-071) and 1% pen/strep (ThermoFisher Scientific, #15140-122). The cells were seeded into two white opaque 384-well tissue culture treated microplates (PerkinElmer, Waltham, MA, #6007688) at a density of 100 cells/well in 20 uL total volume and incubated overnight at 37 C and 5% CO2. 30 nL of compounds dissolved in DMSO were then transferred from a source plate into target wells with the Echo650 acoustic liquid handler (Beckman Coulter, Indianapolis, IN). Negative control wells received 30 nL of DMSO only (0.15% final concentration). Plates were returned to the incubator for 1 hour and then cells treated with either 5 uL of growth medium or 5 uL of growth medium containing 50 ng/mL of recombinant mouse IFN-gamma protein (R&D Systems, Minneapolis, MN, #485-MI/CF, 10 ng/mL final concentration) using the Assist automated pipetting platform (INTEGRA Biosciences, Hudson, NH). Plates were incubated at 37 C for 4 days and cell proliferation assayed with the CellTiter-Glo reagent (Promega, Madison, WI, #G7573, 25 uL per well). […] Off-target compound mediated cytotoxicity was identified by checking for growth inhibition in the absence of IFNg.

IC50 (PTPN2 enzyme) | EC50 [1] | EC50 (B16-F10 cells) | Compound
89 nM | ≥ 15000 nM | 7820 nM | COc1cncc(-c2cc(O)c(N3CC(=O)NS3(=O)=O)c(F)c2)c1 [EXAMPLE 28, 5-[2-fluoro-6-hydroxy-4-(5-methoxy-3-pyridyl)phenyl]-1,1-dioxo-1,2,5-thiadiazolidin-3-one]
226 nM | ≥ 15000 nM | ≥ 15000 nM | CN(C)CC1CCN(Cc2cc(O)c(N3CC(=O)NS3(=O)=O)c(F)c2)CC1 [EXAMPLE 56, 5-[4-[[4-[(dimethylamino)methyl]-1-piperidyl]methyl]-2-fluoro-6-hydroxy-phenyl]-1,1-dioxo-1,2,5-thiadiazolidin-3-one]
1340 nM | ≥ 15000 nM | ≥ 15000 nM | O=C1CN(c2c(O)cc(-c3cccc(-c4ccccc4)c3)cc2F)S(=O)(=O)N1 [EXAMPLE 11, 5-[2-fluoro-6-hydroxy-4-(3-phenylphenyl)phenyl]-1,1-dioxo-1,2,5-thiadiazolidin-3-one]
6140 nM | ≥ 15000 nM | ≥ 15000 nM | O=C1CN(c2c(O)cc(-c3ccc(Cc4ccccc4)cc3)cc2F)S(=O)(=O)N1 [EXAMPLE 10, 5-[4-(4-benzylphenyl)-2-fluoro-6-hydroxy-phenyl]-1,1-dioxo-1,2,5-thiadiazolidin-3-one]
2480 nM | ≥ 15000 nM | ≥ 15000 nM | CC(C)Cc1ccc(-c2cc(O)c(N3CC(=O)NS3(=O)=O)c(F)c2)cc1 [EXAMPLE 15, 5-[2-fluoro-6-hydroxy-4-(4-isobutylphenyl)phenyl]-1,1-dioxo-1,2,5-thiadiazolidin-3-one]
1410 nM | 7950 nM | ≥ 15000 nM | O=C1CN(c2c(O)cc(-c3ccc(C4CC4)cc3)cc2F)S(=O)(=O)N1 [EXAMPLE 17, 5-[4-(4-cyclopropylphenyl)-2-fluoro-6-hydroxy-phenyl]-1,1-dioxo-1,2,5-thiadiazolidin-3-one]
102 nM | 3200 nM | 2980 nM | COC1CCN(Cc2cc(O)c(N3CC(=O)NS3(=O)=O)c(F)c2)CC1 [EXAMPLE 53, 5-[2-fluoro-6-hydroxy-4-[(4-methoxy-1-piperidyl)methyl]phenyl]-1,1-dioxo-1,2,5-thiadiazolidin-3-one]
25 nM | 2910 nM | 1890 nM | CC(=O)N1CCC[C@H](NCc2cc(O)c(N3CC(=O)NS3(=O)=O)c(F)c2)C1 [EXAMPLE 71, 5-[4-[[[(3S)-1-acetyl-3-piperidyl]amino]methyl]-2-fluoro-6-hydroxy-phenyl]-1,1-dioxo-1,2,5-thiadiazolidin-3-one]
130 nM | 5200 nM | 6860 nM | O=C1CN(c2c(O)cc(CN[C@H]3CCCNC3)cc2F)S(=O)(=O)N1 [EXAMPLE 65, (S)-5-(2-fluoro-6-hydroxy-4-((piperidin-3-ylamino)methyl)phenyl)-1,2,5-thiadiazolidin-3-one 1,1-dioxide]
2130 nM | ≥ 15000 nM | ≥ 15000 nM | COCCN1CCC(Nc2cc(O)c(N3CC(=O)NS3(=O)=O)c(F)c2)CC1 [EXAMPLE 90, 5-(2-fluoro-6-hydroxy-4-((1-(2-methoxyethyl)piperidin-4-yl)amino)phenyl)-1,2,5-thiadiazolidin-3-one 1,1-dioxide]
1190 nM | ≥ 15000 nM | ≥ 15000 nM | O=C1CN(c2c(O)cc(-c3cc(-c4ccccc4)cs3)cc2F)S(=O)(=O)N1 [EXAMPLE 18, 5-[2-fluoro-6-hydroxy-4-(4-phenyl-2-thienyl)phenyl]-1,1-dioxo-1,2,5-thiadiazolidin-3-one]
86 nM | ≥ 15000 nM | ≥ 15000 nM | O=C1CN(c2c(O)cc(CNC3CCNCC3)cc2F)S(=O)(=O)N1 [EXAMPLE 39, 5-(2-fluoro-6-hydroxy-4-((piperidin-4-ylamino)methyl)phenyl)-1,2,5-thiadiazolidin-3-one 1,1-dioxide]
104 nM | 2410 nM | 1310 nM | CN1CCN(Cc2cc(O)c(N3CC(=O)NS3(=O)=O)c(F)c2)CC1 [EXAMPLE 31, 5-(2-fluoro-6-hydroxy-4-((4-methylpiperazin-1-yl)methyl)phenyl)-1,2,5-thiadiazolidin-3-one 1,1-dioxide]
199 nM | 2430 nM | ≥ 15000 nM | O=C1CN(c2c(O)cc(-c3cccnc3)cc2F)S(=O)(=O)N1 [EXAMPLE 8, 5-(2-fluoro-6-hydroxy-4-(pyridin-3-yl)phenyl)-1,2,5-thiadiazolidin-3-one 1,1-dioxide]
483 nM | ≥ 15000 nM | ≥ 15000 nM | O=C1CN(c2c(O)cc(-c3ccc(CN4CCCC4)cc3)cc2F)S(=O)(=O)N1 [EXAMPLE 19, 5-[2-fluoro-6-hydroxy-4-[4-(pyrrolidin-1-ylmethyl)phenyl]phenyl]-1,1-dioxo-1,2,5-thiadiazolidin-3-one]
205 nM | ≥ 15000 nM | ≥ 15000 nM | O=C1CN(c2c(O)cc(-c3ccnc(-c4ccccc4)c3)cc2F)S(=O)(=O)N1 [EXAMPLE 20, 5-[2-fluoro-6-hydroxy-4-(2-phenyl-4-pyridyl)phenyl]-1,1-dioxo-1,2,5-thiadiazolidin-3-one]
50 nM | ≥ 15000 nM | ≥ 15000 nM | O=C1CN(c2c(O)cc(CNc3cc(F)ccc3Cl)cc2F)S(=O)(=O)N1 [EXAMPLE 80, 5-[4-[(2-chloro-5-fluoro-anilino)methyl]-2-fluoro-6-hydroxy-phenyl]-1,1-dioxo-1,2,5-thiadiazolidin-3-one]
682 nM | 5480 nM | ≥ 15000 nM | O=C1CN(c2c(O)cc(N3CCNCC3)cc2F)S(=O)(=O)N1 [EXAMPLE 85, 5-(2-fluoro-6-hydroxy-4-(piperazin-1-yl)phenyl)-1,2,5-thiadiazolidin-3-one 1,1-dioxide]
179 nM | ≥ 15000 nM | ≥ 15000 nM | CC(C)(O)c1ccc(-c2cc(O)c(N3CC(=O)NS3(=O)=O)c(F)c2)cc1 [EXAMPLE 22, 5-[2-fluoro-6-hydroxy-4-[4-(1-hydroxy-1-methyl-ethyl)phenyl]phenyl]-1,1-dioxo-1,2,5-thiadiazolidin-3-one]
79 nM | ≥ 15000 nM | ≥ 15000 nM | CC(C)CC(=O)N1CCN(Cc2cc(O)c(N3CC(=O)NS3(=O)=O)c(F)c2)CC1 [EXAMPLE 36, 5-(2-fluoro-6-hydroxy-4-((4-(3-methylbutanoyl)piperazin-1-yl)methyl)phenyl)-1,2,5-thiadiazolidin-3-one 1,1-dioxide]

From US12162848B2, “Inhibitors of protein tyrosine phosphatase, compositions, and methods of use” (BRISTOL-MYERS SQUIBB COMPANY, priority 2022, dated 2024)
